Values quoted from earlier work in US8307894B2, “Composition and method for inhibiting the deleterious effects of sulfate reducing bacteria” (priority 2009, dated 2012).
Like-named read-outs stand apart in the source and are kept apart here.

Columns and labels:
[1] = system: sulfate reducing bacteria; conditions: government study (12/04)
[2] = not given; remark: listed apart in the source
[3] = system: insects and aquatic life including fish

Row | SMILES | inhibition of sulfate reducing bacteria [1] | lifetime in the environment (breaks down when exposed to sunlight) | persistence in water (in water) | Solubility ([2]; in ethanol) | Solubility ([2]; in ether and acetone) | toxicity (humans and other mammals) | toxicity [3]
1 | [O]=[Mo](=[O])([O-])[O-] [molybdate] | possible candidates as inhibitors |  |  |  |  |  | 
2 | C=C(C)[C@H]1Cc2c(ccc3c2O[C@@H]2COc4cc(OC)c(OC)cc4[C@@H]2C3=O)O1 [rotenone] |  | six | six | slightly soluble | Soluble | mildly toxic | extremely toxic
